This is an account of results in the supplement of paper PMC10307832.

The first assay relates to NCI-H2023. Briefly: relative viability (nuclei count vs DMSO), 5 days (fraction); higher = more cells survive. The note with it: first compound 0.2 µM. In outline:
(§1)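 Values are medians from duplicate plates. Each reflects relative viability, defined as the nuclei count of treated wells over that of vehicle wells. Lung cancer cell lines in 1536-well plates were pin-tool dosed one day after seeding with one drug alone or with a fixed anchor-drug dose plus five library-drug doses (not always all listed) in √10 steps, then fixed, stained and imaged at 4× after 5 days.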
As for `COCC1(CO)C(=O)C2CCN1CC2` (stereo unspecified) [PRIMA-1MET] + CS(=O)(=O)N1CCN(Cc2cc3nc(-c4cccc5[nH]ncc45)nc(N4CCOCC4)c3s2)CC1 [Pictilisib] (partner 1 µM), the relative viability was determined as 0.205.
`COCC1(CO)C(=O)C2CCN1CC2` (stereo unspecified) [PRIMA-1MET] + CCNC(=O)c1noc(-c2cc(C(C)C)c(O)cc2O)c1-c1ccc(CN2CCOCC2)cc1 [Luminespib] (partner 0.01 µM) showed a relative viability of 0.957.
Same read-out and setting: for `COCC1(CO)C(=O)C2CCN1CC2` (stereo unspecified) [PRIMA-1MET] + CC(=O)c1c(C)c2cnc(Nc3ccc(N4CCNCC4)cn3)nc2n(C2CCCC2)c1=O [Palbociclib] (partner 0.5 µM) the value was 0.352.
On to `COCC1(CO)C(=O)C2CCN1CC2` (stereo unspecified) [PRIMA-1MET] + Cc1nc(Nc2ncc(C(=O)Nc3c(C)cccc3Cl)s2)cc(N2CCN(CCO)CC2)n1 [Dasatinib] (partner 0.075 µM), for which the relative viability came to 0.601.

The assay is the same for the next values; noted with them: first compound 0.6325 µM.
`COCC1(CO)C(=O)C2CCN1CC2` (stereo unspecified) [PRIMA-1MET] + CS(=O)(=O)N1CCN(Cc2cc3nc(-c4cccc5[nH]ncc45)nc(N4CCOCC4)c3s2)CC1 [Pictilisib] (partner 1 µM): the relative viability was determined as 0.196.
On the same count and under the same terms, the figure for `COCC1(CO)C(=O)C2CCN1CC2` (stereo unspecified) [PRIMA-1MET] + CCNC(=O)c1noc(-c2cc(C(C)C)c(O)cc2O)c1-c1ccc(CN2CCOCC2)cc1 [Luminespib] (partner 0.01 µM) is 0.85; for `COCC1(CO)C(=O)C2CCN1CC2` (stereo unspecified) [PRIMA-1MET] + CC(=O)c1c(C)c2cnc(Nc3ccc(N4CCNCC4)cn3)nc2n(C2CCCC2)c1=O [Palbociclib] (partner 0.5 µM) it is 0.379.
On the same count and under the same terms, for `COCC1(CO)C(=O)C2CCN1CC2` (stereo unspecified) [PRIMA-1MET] + Cc1nc(Nc2ncc(C(=O)Nc3c(C)cccc3Cl)s2)cc(N2CCN(CCO)CC2)n1 [Dasatinib] (partner 0.075 µM) the value was 0.586.

Staying with this assay, now noted: first compound 2 µM.
Regarding `COCC1(CO)C(=O)C2CCN1CC2` (stereo unspecified) [PRIMA-1MET] + CS(=O)(=O)N1CCN(Cc2cc3nc(-c4cccc5[nH]ncc45)nc(N4CCOCC4)c3s2)CC1 [Pictilisib] (partner 1 µM), the relative viability amounted to 0.222.
On the same count and under the same terms, the figure for `COCC1(CO)C(=O)C2CCN1CC2` (stereo unspecified) [PRIMA-1MET] + CCNC(=O)c1noc(-c2cc(C(C)C)c(O)cc2O)c1-c1ccc(CN2CCOCC2)cc1 [Luminespib] (partner 0.01 µM) is 0.745; for `COCC1(CO)C(=O)C2CCN1CC2` (stereo unspecified) [PRIMA-1MET] + CC(=O)c1c(C)c2cnc(Nc3ccc(N4CCNCC4)cn3)nc2n(C2CCCC2)c1=O [Palbociclib] (partner 0.5 µM) it is 0.422.
On the same count and under the same terms, the figure for `COCC1(CO)C(=O)C2CCN1CC2` (stereo unspecified) [PRIMA-1MET] + Cc1nc(Nc2ncc(C(=O)Nc3c(C)cccc3Cl)s2)cc(N2CCN(CCO)CC2)n1 [Dasatinib] (partner 0.075 µM) is 0.567.

The same assay, now with this note: first compound 6.325 µM.
Take `COCC1(CO)C(=O)C2CCN1CC2` (stereo unspecified) [PRIMA-1MET] + CS(=O)(=O)N1CCN(Cc2cc3nc(-c4cccc5[nH]ncc45)nc(N4CCOCC4)c3s2)CC1 [Pictilisib] (partner 1 µM): the relative viability came out at 0.229.
The same measure, in the same setting: for `COCC1(CO)C(=O)C2CCN1CC2` (stereo unspecified) [PRIMA-1MET] + CCNC(=O)c1noc(-c2cc(C(C)C)c(O)cc2O)c1-c1ccc(CN2CCOCC2)cc1 [Luminespib] (partner 0.01 µM) the value was 0.685.
Same read-out and setting: for `COCC1(CO)C(=O)C2CCN1CC2` (stereo unspecified) [PRIMA-1MET] + CC(=O)c1c(C)c2cnc(Nc3ccc(N4CCNCC4)cn3)nc2n(C2CCCC2)c1=O [Palbociclib] (partner 0.5 µM) the value was 0.365; for `COCC1(CO)C(=O)C2CCN1CC2` (stereo unspecified) [PRIMA-1MET] + Cc1nc(Nc2ncc(C(=O)Nc3c(C)cccc3Cl)s2)cc(N2CCN(CCO)CC2)n1 [Dasatinib] (partner 0.075 µM), 0.57.

The same assay, now with this note: first compound 20 µM.
`COCC1(CO)C(=O)C2CCN1CC2` (stereo unspecified) [PRIMA-1MET] + CS(=O)(=O)N1CCN(Cc2cc3nc(-c4cccc5[nH]ncc45)nc(N4CCOCC4)c3s2)CC1 [Pictilisib] (partner 1 µM) showed a relative viability of 0.221.
On the same count and under the same terms, for `COCC1(CO)C(=O)C2CCN1CC2` (stereo unspecified) [PRIMA-1MET] + CCNC(=O)c1noc(-c2cc(C(C)C)c(O)cc2O)c1-c1ccc(CN2CCOCC2)cc1 [Luminespib] (partner 0.01 µM) the value was 0.642; for `COCC1(CO)C(=O)C2CCN1CC2` (stereo unspecified) [PRIMA-1MET] + CC(=O)c1c(C)c2cnc(Nc3ccc(N4CCNCC4)cn3)nc2n(C2CCCC2)c1=O [Palbociclib] (partner 0.5 µM), 0.295.
Same read-out and setting: the figure for `COCC1(CO)C(=O)C2CCN1CC2` (stereo unspecified) [PRIMA-1MET] + Cc1nc(Nc2ncc(C(=O)Nc3c(C)cccc3Cl)s2)cc(N2CCN(CCO)CC2)n1 [Dasatinib] (partner 0.075 µM) is 0.229.

The next assay relates to A-427. The assay is described as above. The note with it: first compound 0.2 µM. In outline:
as §1
`COCC1(CO)C(=O)C2CCN1CC2` (stereo unspecified) [PRIMA-1MET] + CS(=O)(=O)N1CCN(Cc2cc3nc(-c4cccc5[nH]ncc45)nc(N4CCOCC4)c3s2)CC1 [Pictilisib] (partner 1 µM) returned a relative viability of 0.255.
Compound `COCC1(CO)C(=O)C2CCN1CC2` (stereo unspecified) [PRIMA-1MET] + CCNC(=O)c1noc(-c2cc(C(C)C)c(O)cc2O)c1-c1ccc(CN2CCOCC2)cc1 [Luminespib] (partner 0.01 µM) returned a relative viability of 1.19.
On the same count and under the same terms, for `COCC1(CO)C(=O)C2CCN1CC2` (stereo unspecified) [PRIMA-1MET] + CC(=O)c1c(C)c2cnc(Nc3ccc(N4CCNCC4)cn3)nc2n(C2CCCC2)c1=O [Palbociclib] (partner 0.5 µM) the value was 0.574; for `COCC1(CO)C(=O)C2CCN1CC2` (stereo unspecified) [PRIMA-1MET] + Cc1nc(Nc2ncc(C(=O)Nc3c(C)cccc3Cl)s2)cc(N2CCN(CCO)CC2)n1 [Dasatinib] (partner 0.075 µM), 0.547.

The same assay, now with this note: first compound 0.6325 µM.
The compound `COCC1(CO)C(=O)C2CCN1CC2` (stereo unspecified) [PRIMA-1MET] + CS(=O)(=O)N1CCN(Cc2cc3nc(-c4cccc5[nH]ncc45)nc(N4CCOCC4)c3s2)CC1 [Pictilisib] (partner 1 µM) had a relative viability of 0.53.
For `COCC1(CO)C(=O)C2CCN1CC2` (stereo unspecified) [PRIMA-1MET] + CCNC(=O)c1noc(-c2cc(C(C)C)c(O)cc2O)c1-c1ccc(CN2CCOCC2)cc1 [Luminespib] (partner 0.01 µM), the relative viability stood at 0.717.
